Test results from US8269043B2, “Bicyclic aryl sphingosine 1-phosphate analogs” (Biogen Idec MA Inc., priority 2008, dated 2012).

What follows are compounds tested on circulating lymphocytes (assay: Lymphopenia assay: circulating lymphocytes after oral gavage). Settings: C57bl/6 male mice, oral gavage 0.5 and 5 mg/kg in 30% HPCD, blood 5 and 24 hours after administration.
Assay type: in vivo
Experimental: Measurement of circulating lymphocytes: Compounds were dissolved in 30% HPCD. Mice (C57bl/6 male, 6-10 week-old) were administered 0.5 and 5 mg/kg of a compound via oral gavage. 30% HPCD was included as a negative control.
Blood was collected from the retro-orbital sinus 5 and 24 hours after drug administration under short isoflurane anesthesia. Whole blood samples were subjected to hematology analysis. Peripheral lymphocyte counts were determined using an automated analyzer (HEMAVET™ 3700). Three mice were used to assess the lymphocyte depletion activity of each compound screened.
Compounds of formula (I) induced full lymphopenia at times as short as 3 hours or less to as long as 48 hours or more; for example, 4 to 36 hours, or 5 to 24 hours. In some cases, a compound of formula induced full lymphopenia at 5 hours and partial lymphopenia at 24 hours. The dosage required to induce lymphopenia can be in the range of, e.g., 0.001 mg/kg to 100 mg/kg; or 0.01 mg/kg to 10 mg/kg. The dosage can be 10 mg/kg or less, such as 5 mg/kg or less, 1 mg/kg or less, or 0.1 mg/kg or less

Compound | Lymphopenia (ED50 mg/kg)
NC(CO)(CO)c1ccc2c(C(F)(F)F)c(O[C@H]3C[C@@H](COCc4ccccc4)C3)ccc2c1 [Example 74] | <0.5 mg/kg
NC(CO)(CO)c1ccc2c(C(F)(F)F)c(O[C@H]3C[C@H](COCc4ccccc4)C3)ccc2c1 [Example 73] | <0.5 mg/kg
C[C@](N)(CO)c1ccc2cc(O[C@H]3C[C@@H](COCc4ccccc4)C3)ccc2c1 (relative stereo) [Example 77] | <0.5 mg/kg
(R)-2-Amino-2-[6-(cis-4-pentyl-cyclohexyloxy)-naphthalen-2-yl]-propan-1-ol and (R)-2-Amino-2-[6-(trans-4-pentyl-cyclohexyloxy)-naphthalen-2-yl]-propan-1-ol [Example 272] | <0.5 mg/kg
CC(C)(C)[C@H]1CC[C@H](Oc2ccc3cc([C@](C)(N)CO)ccc3c2C(F)(F)F)CC1 (relative stereo) [Example 124, (S)-2-amino-2-[6-(4-trans-tert-butyl-cyclohexyloxy)-5-trifluoromethyl-naphthalen-2-yl]-propan-1-ol] | >5 mg/kg
(R)-2-amino-2-(6-((1R,2R,4S)-bicyclo[2.2.1]heptan-2-yloxy)naphthalen-2-yl)propan-1-ol [Example 105] | >5 mg/kg
CC(C)(C)[C@H]1CC[C@H](Oc2ccc3cc([C@@](C)(N)CO)ccc3c2)CC1 [Example 49, (R)-2-amino-2-(6-(trans-4-tert-butylcyclohexyloxy)naphthalen-2-yl)propan-1-ol] | 0.4 mg/kg
CC(C)(C)[C@H]1CC[C@@H](Oc2ccc3cc([C@](C)(N)CO)ccc3c2C(F)(F)F)CC1 (relative stereo) [Example 128, (S)-2-amino-2-[6-(4-cis-tert-butyl-cyclohexyloxy)-5-trifluoromethyl-naphthalen-2-yl]-propan-1-ol] | 0.5 to 5 mg/kg
CCC(C)(C)[C@H]1CC[C@@H](Oc2ccc3cc([C@@](C)(N)CO)ccc3c2)CC1 (relative stereo) [Example 79, (R)-2-Amino-2-[6-(4-cis-tert-pentylcyclohexyloxy)naphthalen-2-yl]propan-1-ol] | >5 mg/kg
Cl.NC(CO)(CO)c1ccc2cc(O[C@H]3C[C@H](COCc4ccccc4)C3)ccc2c1 [Example 65] | <0.5 mg/kg
CCC(C)(C)[C@H]1CC[C@H](Oc2ccc3cc([C@@](C)(N)CO)ccc3c2)CC1 (relative stereo) [Example 78, (R)-2-Amino-2-[6-(4-trans-tert-pentylcyclohexyloxy)naphthalen-2-yl]propan-1-ol] | 0.5 to 5 mg/kg

Same assay, conditions: Mus musculus, Lymphocyte, po, C57bl/6 male mice, oral gavage 0.5 and 5 mg/kg in 30% HPCD, blood 5 and 24 hours after administration

Compound | ED50
CCc1ccccc1Oc1ccc2cc([C@@](C)(N)CO)ccc2c1 [Example 182, (R)-2-Amino-2-(6-(2-ethylphenoxy)naphthalen-2-yl)propan-1-ol] | 0.5 to 5 mg/kg
CC(C)(C)[C@H]1CC[C@H](Oc2ccc3cc(C4(N)COC4)ccc3c2)CC1 [Example 151, 3-(6-(trans-4-tert-Butylcyclohexyloxy)naphthalen-2-yl)oxetan-3-amine] | 0.5 to 5 mg/kg
Cc1ccc(Oc2ccc3cc([C@@](C)(N)CO)ccc3c2)cc1 [Example 180, (R)-2-Amino-2-(6-(p-tolyloxy)naphthalen-2-yl)propan-1-ol] | 0.5 to 5 mg/kg
CC1(C)CCC(Oc2ccc3cc([C@@](C)(N)CO)ccc3c2)CC1 [Example 47, (R)-2-amino-2-(6-(4,4-dimethylcyclohexyloxy)naphthalen-2-yl)propan-1-ol] | > 5 mg/kg
CC(C)Cc1ccc(Oc2ccc3cc([C@@](C)(N)CO)ccc3c2)cc1 [Example 178, (R)-2-Amino-2-(6-(4-isobutylphenoxy)naphthalen-2-yl)propan-1-ol] | < 0.5 mg/kg
C[C@](N)(CO)c1ccc2c(C(F)(F)F)c(O[C@H]3CC[C@H](C4CCCC4)CC3)ccc2c1 [Example 103, (R)-2-Amino-2-[6-(trans-4-cyclopentyl-cyclohexyloxy)-5-trifluoromethyl-naphthalen-2-yl]-propan-1-ol] | > 5 mg/kg
C[C@](N)(CO)c1ccc2cc(Oc3ccc(C(F)(F)F)cc3)ccc2c1 [Example 181, (R)-2-Amino-2-(6-(4-(trifluoromethyl)phenoxy)naphthalen-2-yl)propan-1-ol] | > 5 mg/kg
CC(C)[C@H]1CC[C@@H](Oc2ccc3cc([C@@](C)(N)CO)ccc3c2C(F)(F)F)CC1 [Example 167, (R)-2-Amino-2-(6-(cis-4-isopropylcyclohexyloxy)-5-(trifluoromethyl)naphthalen-2-yl)propan-1-ol] | < 0.5 mg/kg
Cc1ccc(Oc2ccc3cc([C@@](C)(N)CO)ccc3c2)cc1C [Example 184, (R)-2-Amino-2-(6-(3,4-dimethylphenoxy)naphthalen-2-yl)propan-1-ol] | > 5 mg/kg
CCC(F)(F)[C@H]1CC[C@@H](Oc2ccc3cc([C@@](C)(N)CO)ccc3c2)CC1 [Example 325, (R)-2-amino-2-(6-(cis-4-(1,1-difluoropropyl)cyclohexyloxy)naphthalen-2-yl)propan-1-ol] | > 5 mg/kg
CC(C)(C)c1ccc(Oc2ccc3cc([C@@](C)(N)CO)ccc3c2)cc1 [Example 179, (R)-2-Amino-2-(6-(4-tert-butylphenoxy)naphthalen-2-yl)propan-1-ol] | 0.5 to 5 mg/kg
CC(N)(CCC(=O)O)c1ccc2c(C(F)(F)F)c(O[C@H]3CC[C@H](C(C)(C)C)CC3)ccc2c1 (stereo partly drawn) [Example 211, 4-amino-4-(6-(trans-4-tert-butylcyclohexyloxy)-5-(trifluoromethyl)naphthalen-2-yl) pentanoic acid] | 0.5 to 5 mg/kg
C[C@](N)(CO)c1ccc2cc(O[C@H]3CC[C@H](C(F)(F)F)CC3)ccc2c1 [Example 260, (R)-2-Amino-2-[6-(trans-4-trifluoromethyl-cyclohexyloxy)-naphthalen-2-yl]-propan-1-ol] | 0.5 to 5 mg/kg
CC(F)(F)[C@H]1CC[C@H](Oc2ccc3cc([C@@](C)(N)CO)ccc3c2)CC1 [Example 299, (R)-2-amino-2-(6-(trans-4-(1,1-difluoroethyl)cyclohexyloxy)naphthalen-2-yl)propan-1-ol] | < 0.5 mg/kg
CCCCCOc1cccc(Oc2ccc3cc(C(N)(CO)CO)ccc3c2)c1 [Example 196, 2-Amino-2-(6-(3-(pentyloxy)phenoxy)naphthalen-2-yl)propane-1,3-diol] | < 0.5 mg/kg
C[C@](N)(CO)c1ccc2cc(Oc3ccc(F)c(Cl)c3)ccc2c1 [Example 185, (R)-2-Amino-2-(6-(3-chloro-4-fluorophenoxy)naphthalen-2-yl)propan-1-ol] | 0.5 to 5 mg/kg
C[C@](N)(CO)c1ccc2cc(OC3CCC(C4CCCC4)CC3)ccc2c1 (stereo partly drawn) [Example 94, (R)-2-Amino-2-[6-(4-cyclopentyl-cyclohexyloxy)-naphthalen-2-yl]-propan-1-ol] | 0.5 to 5 mg/kg
CCC(F)(F)[C@H]1CC[C@H](Oc2ccc3cc([C@@](C)(N)CO)ccc3c2C(F)(F)F)CC1 [Example 337, (R)-2-amino-2-(6-(trans-4-(1,1-difluoropropyl)cyclohexyloxy)-5-(trifluoromethyl)naphthalen-2-yl)propan-1-ol] | < 0.5 mg/kg
C[C@](N)(CO)c1ccc2cc(Oc3cc(F)cc(F)c3)ccc2c1 [Example 186, (R)-2-Amino-2-(6-(3,5-difluorophenoxy)naphthalen-2-yl)propan-1-ol] | 0.5 to 5 mg/kg
NC(CO)(CO)c1ccc2cc(Oc3cccc(OCc4ccccc4)c3)ccc2c1 [Example 194, 2-Amino-2-(6-(3-(benzyloxy)phenoxy)naphthalen-2-yl)propane-1,3-diol] | < 0.5 mg/kg
C[C@@]1(c2ccc3c(C(F)(F)F)c(O)ccc3c2)COC(=O)N1 [Example 130, (R)-4-(6-hydroxy-5-(trifluoromethyl)naphthalen-2-yl)-4-methyloxazolidin-2-one] | > 5 mg/kg
CC(C)(C)[C@H]1CC[C@H](Oc2ccc3cc([C@@](C)(N)CO)ccc3c2Cl)CC1 [Example 236, (R)-2-amino-2-(6-(trans-4-tert-butylcyclohexyloxy)-5-chloronaphthalen-2-yl)propan-1-ol] | < 0.5 mg/kg
CC(C)(C)[C@H]1CC[C@H](Oc2ccc3cc([C@@](C)(N)CO)ccc3c2-c2ccc(Cl)cc2)CC1 [Example 233, (R)-2-amino-2-(6-(trans-4-tert-butylcyclohexyloxy)-5-(4-chlorophenyl)naphthalen-2-yl)propan-1-ol] | > 5 mg/kg
C[C@](N)(CO)c1ccc2c(C(F)(F)F)c(O[C@H]3CC[C@@H](C4CCCC4)CC3)ccc2c1 [Example 100, (R)-2-Amino-2-[6-(cis-4-cyclopentyl-cyclohexyloxy)-5-trifluoromethyl-naphthalen-2-yl]-propan-1-ol] | > 5 mg/kg
CCCC[C@H]1CC[C@@H](Oc2ccc3cc(C(N)(CO)CO)ccc3c2)CC1 [Example 14, 2-amino-2-(6-(cis-4-butylcyclohexyloxy)naphthalen-2-yl)propane-1,3-diol] | > 5 mg/kg
CCCC[C@H]1CC[C@H](Oc2ccc3cc([C@@](C)(N)CO)ccc3c2)CC1 [Example 8, (R)-2-amino-2-(6-(trans-4-butylcyclohexyloxy)naphthalen-2-yl)propan-1-ol] | < 0.5 mg/kg
C=Cc1c(O[C@H]2CC[C@H](C(C)(C)C)CC2)ccc2cc([C@@](C)(N)CO)ccc12 [Example 219, (R)-2-amino-2-(6-(trans-4-tert-butylcyclohexyloxy)-5-vinylnaphthalen-2-yl)propan-1-ol] | < 0.5 mg/kg
